Experimental data as given in patent publication US6562855B1, “Anaesthetic formulation comprising an NMDA-antagoinst and an alpha-2 adrenergic agonist” (priority 1999, dated 2003).
Entries after “also recorded” stand apart in the source; their conditions may differ.

Key:
Male Sprague-Dawley rats [1] = assay: Loss of righting reflex (sleep-time), hypnotic response to dexmedetomidine; type: in vivo, rat; conditions: for effect of co-administration on induction of tolerance to the hypnotic effect of dexmedetomidine: NO2-arginine 0.4-4 μg/kg/hr with dexmedetomidine 5 μg/kg/hr for 7 days (FIG. 5C); for effect of co-administration on development of tolerance to the hypnotic effect of dexmedetomidine: MK-801 100 and 400 μg/kg/hr co-administered with dexmedetomidine, challenge 100 μg/kg i.p., pumps removed 1 day prior to testing (FIG. 2C)
Description: (§1) The experimental protocol was approved by the Animal Care and Use Committee of the Veterans Affairs Palo Alto Health Care System. Male Sprague-Dawley rats, (B&K, Fremont, Calif.) weighing 250-350 g were used. The rats were stratified to match the distribution of the weights in the groups as closely as possible. All tests were performed between 10 a.m. and 4 p.m. The number of animals for each experiment is listed in the legends.
(§2) Rats were made tolerant to the anesthetic action of an alpha-2 agonist, dexmedetomidine, as described by Reid K et al (ibid). Briefly, rats were administered dexmedetomidine chronically using Alzet® osmotic minipumps (Model 2002 or 1007D, Alza, Palo Alto Calif.), which discharge their contents at a mean pumping rate of 0.48±0.02 μl/h. The pumps were inserted subcutaneously during isoflurane anesthesia in the dorsal thoracic region and loaded to deliver 5 μg/kg/h for 7 days to induce hypnotic tolerance and 10 μg/kg/h for 14 days to induce analgesic tolerance. […] When MK-801 or Nω-nitro-L-arginine (NO2-arginine) was co-administered with dexmedetomidine the MK-801 was included in the same pump. […] For the MK-801 and Nω-nitro-L-arginine (NO2-arginine) hypnotic experiments the pumps were removed one day prior to behavioral testing. In all other experiments the pumps were not removed prior to testing.
Hypnotic response to dexmedetomidine, was defined by the loss of the rat's righting reflex (LORR), and its duration was measured in minutes and referred to as sleep-time. The duration of the LORR was assessed as the time from the rat's inability to right itself when placed on its back until the time that it spontaneously reverted, completely, to the prone position. The hypnotic response test was performed between 10 a.m. and 6 p.m. as described in Reid et al, 1994.
(§3) The NOS inhibitor Nω-nitro-L-arginine (NO2-arginine) (Sigma) and the NMDA antagonists MK-801 (RBI) and ketamine (Sigma) were diluted in normal saline and acutely administered intraperitoneally or administered chronically by means of Alzet® osmotic minipumps (Model 2002 or 1007D, Alza, Palo Alto Calif.). These compounds were co-administered with dexmedetomidine by including both drugs in one pump.
(§4) LORR and tail flick data was analyzed using the analysis of variance (ANOVA) followed by post hoc Bonferroni tests or Dunnett's multiple comparison test or t-test where appropriate.

Male Sprague-Dawley rats [2] = assay: Tail flick response to a noxious thermal stimulus (analgesic action of dexmedetomidine); type: in vivo, rat; conditions: for effect of acute administration on the analgesic action of dexmedetomidine: tail flick 40 min later
Description: as §1, §2
Nociceptive response was assessed by the tail flick response to a noxious thermal stimulus 40 minutes after the administration of the dexmedetomidine challenge dose. A high intensity light beam focused on the tail and the time for the rat to move its tail out of the light was recorded as tail flick latency. This method has been described previously in the literature (Guo T Z et al, ibid). The latencies from three sites on the tail were averaged. A cut-off time of 10 sec was predetermined to prevent tissue damage. Baseline measurements consist of a set of three tail flick determinations at 2 min intervals.
as §3, §4

NMDA receptor = conditions: 80% xenon; cultured hippocampal neurons; cited from earlier work
[3] = 20° C. and normal pressure; cited from earlier work
Male Sprague-Dawley rats [4] = conditions: previously demonstrated (Guo T Z et al); cited from earlier work
[5] = chronic exposure to dexmedetomidine for 14 days (10 μg/kg/h) (FIG. 1B)

Q: Which “effect of co-administration on induction of tolerance to the hypnotic effect of dexmedetomidine” value (Male Sprague-Dawley rats [1]) does the source give for `N=C(NCCC[C@H](N)C(=O)O)N[N+](=O)[O-]` [NO2-arginine, Nω-nitro-L-arginine] here?
A: dose-dependently blocks the development of tolerance; also recorded: attenuated

Q: And the “effect of co-administration on induction of tolerance to the hypnotic effect of dexmedetomidine” value (Male Sprague-Dawley rats [1]; listed as NO2-Arginine)?
A: blocked

Q: What about the “effect of acute administration on dexmedetomidine-induced sleep time” value (Male Sprague-Dawley rats [1]; NO2-arginine 15 min prior to dexmedetomidine 100 μg/kg i.p., drug naive rats (FIG. 5A)) of the same molecule?
A: dependently increases the dexmedetomidine-induced sleep time; also recorded: increased sleep time only at high doses

Q: What about the “effect of acute administration on expression of tolerance to the hypnotic effect of dexmedetomidine” value (Male Sprague-Dawley rats [1]; low doses of NO2-arginine acute, after 7-day dexmedetomidine, challenge 100 μg/kg (FIG. 5B)) of the same molecule?
A: does not reverse the tolerance; also recorded: did not reverse its expression

Q: What about the “effect of acute administration on expression of tolerance to the hypnotic effect of dexmedetomidine” value (Male Sprague-Dawley rats [1]; low doses of NO2-arginine acute, after 7-day dexmedetomidine, challenge 100 μg/kg (FIG. 5B), listed as NO2-Arginine) of the same molecule?
A: does not prevent the expression of tolerance

Q: What about the “effect on dexmedetomidine-induced sleep time when given alone” value (Male Sprague-Dawley rats [1]; treatment with just NO2-arginine 1.25 μg/kg/hr (FIG. 5C, last column)) of the same molecule?
A: does not affect the dexmedetomidine-induced sleep time; also recorded: did not affect the dexmedetomidine sleep time

Q: What about the “effect on dexmedetomidine-induced analgesia in control animals” value (Male Sprague-Dawley rats [2]; NO2-arginine 4 μg/kg/hr (FIG. 6C)) of the same molecule?
A: had no effect on dexmedetomidine-induced analgesia in control animals

Q: And the “effect on tail flick latency when administered alone” value (Male Sprague-Dawley rats [2]; NO2-arginine 4 μg/kg/hr alone (data not shown))?
A: had no effect on tail flick latency

Q: What about the “effect of co-administration on analgesic tolerance to dexmedetomidine” value (Male Sprague-Dawley rats [2]; NO2-arginine 4 μg/kg/hr with dexmedetomidine 10 μg/kg/hr for 14 days (FIG. 6C)) of the same molecule?
A: has no effect on analgesic tolerance; also recorded: had no effect on analgesic tolerance

Q: What about the “effect of co-administration on analgesic tolerance to dexmedetomidine” value (Male Sprague-Dawley rats [2]; NO2-arginine 8 μg/kg/hr with dexmedetomidine 10 μg/kg/hr for 14 days (FIG. 6C)) of the same molecule?
A: also ineffective; also recorded: ineffective at reversing tolerance

Q: And the “effect of acute administration on expression of tolerance to the analgesic action of dexmedetomidine” value (Male Sprague-Dawley rats [2]; NO2-arginine 1 and 20 mg/kg i.p., dexmedetomidine 100 μg/kg i.p., tolerant rats (FIG. 6B))?
A: does not reverse dexmedetomidine tolerance; also recorded: did not reverse the expression of tolerance

Q: And the “effect of acute administration on the analgesic action of dexmedetomidine” value (Male Sprague-Dawley rats [2]; NO2-arginine i.p. 15 min prior to dexmedetomidine 50 μg/kg i.p., naïve rats (FIG. 6A))?
A: has no effect on the analgesic action of dexmedetomidine; also recorded: did not affect the analgesic action of dexmedetomidine

Q: Which “effect on dexmedetomidine-induced sleep time” value (Male Sprague-Dawley rats [1]; MK-801 50 μg/kg acute) does the source give for `C[C@]12N[C@H](Cc3ccccc31)c1ccccc12` [MK-801] here?
A: has no effect on dexmedetomidine-induced sleep time

Q: What about the “effect of acute administration on dexmedetomidine-induced sleep time” value (Male Sprague-Dawley rats [1]; MK-801 10-200 μg/kg, naïve animals, dexmedetomidine 100 μg/kg i.p. (FIG. 2A)) of the same molecule?
A: did not affect sleep time

Q: What about the “effect of co-administration on development of tolerance to the hypnotic effect of dexmedetomidine” value (Male Sprague-Dawley rats [1]) of the same molecule?
A: blocks tolerance; also recorded: able to prevent the development of tolerance

Q: And the “effect of co-administration on development of tolerance to the hypnotic effect of dexmedetomidine” value (Male Sprague-Dawley rats [1]; listed as dizolcipine)?
A: blocked

Q: And the “effect of acute administration on expression of tolerance to the hypnotic effect of dexmedetomidine” value (Male Sprague-Dawley rats [1]; MK-801 acute, rats already tolerant (dexmedetomidine 5 μg/kg/h, 7 days) (FIG. 2B))?
A: does not block dexmedetomidine-induced tolerance; also recorded: did not affect the expression of tolerance

Q: What about the “effect of acute administration on expression of tolerance to the hypnotic effect of dexmedetomidine” value (Male Sprague-Dawley rats [1]; MK-801 acute, rats already tolerant (dexmedetomidine 5 μg/kg/h, 7 days) (FIG. 2B), listed as dizolcipine) of the same molecule?
A: does not prevent the expression of tolerance

Q: And the “effect of acute low dose on expression of tolerance to the analgesic effect of dexmedetomidine” value (Male Sprague-Dawley rats [2]; MK-801 50 μg/kg acute, rats tolerant after dexmedetomidine 10 μg/kg/hr for 14 days (FIG. 4B))?
A: does not prevent the expression of tolerance; also recorded: did not reverse the expression of tolerance

Q: And the “effect of higher dose on the analgesic action of dexmedetomidine” value (Male Sprague-Dawley rats [2]; MK-801 400 μg/kg acute, control animals)?
A: antagonized the analgesic action of dexmedetomidine

Q: What about the “effect of acute higher dose on tolerance to the analgesic effect of dexmedetomidine” value (Male Sprague-Dawley rats [2]; MK-801 400 μg/kg acute, tolerant animals) of the same molecule?
A: unable to reverse tolerance

Q: What about the “effect of acute administration on the analgesic action of dexmedetomidine” value (Male Sprague-Dawley rats [2]; MK-801 15 min before dexmedetomidine 50 μg/kg, naive rats (FIG. 4A)) of the same molecule?
A: suppressed its analgesic action at the two highest doses

Q: What about the “effect of co-administration on development of analgesic tolerance to dexmedetomidine” value (Male Sprague-Dawley rats [2]; MK-801 (0.4 μg/kg/hr as printed; maximum dose tolerated by the rat) with dexmedetomidine 10 μg/kg/hr for 14 days (FIG. 4C)) of the same molecule?
A: does not prevent the development of tolerance; also recorded: had no effect on the development of analgesic tolerance

Q: What about the “effect of low dose on dexmedetomidine-induced analgesia” value (Male Sprague-Dawley rats [2]; low dose of MK-801 (50 μg/kg) acute, control animals (FIG. 4B)) of the same molecule?
A: did not have any affect on dexmedetomidine-induced analgesia

Q: What about the “effect on tail flick latency / dexmedetomidine's analgesic action when administered alone” value (Male Sprague-Dawley rats [2]; same chronic dose of MK-801 alone (FIG. 4C)) of the same molecule?
A: does not affect dexmedetomidine's analgesic action; also recorded: had no effect on tail flick latency

Q: With `[Xe]` [xenon] as the molecule, how does the “reduction of NMDA-activated currents” value (NMDA receptor) read?
A: up to 60%

Q: And the “concentration of xenon dissolved or dispersed in lipid emulsion” value [3]?
A: 0.2 to 10 ml per ml of emulsion

Q: For `CNC1(c2ccccc2Cl)CCCCC1=O` (stereo not shown) [ketamine], which “effect on dexmedetomidine sedation when administered alone” value (Male Sprague-Dawley rats [1]; ketamine 400 μg/kg/hr alone (FIG. 3C)) is on record?
A: without having an effect on dexmedetomidine sedation; also recorded: had no effect by itself

Q: What about the “effect of co-administration on tolerance to the hypnotic (sedative) effect of dexmedetomidine” value (Male Sprague-Dawley rats [1]; ketamine 400 μg/kg/hr concurrently with dexmedetomidine, challenge 150 μg/kg i.p., pumps left in place (FIG. 3C)) of the same molecule?
A: reverses tolerance; also recorded: did reverse tolerance

Q: What about the “effect of acute administration on established tolerance to the hypnotic effect of dexmedetomidine” value (Male Sprague-Dawley rats [1]; ketamine 10 or 20 mg/kg acute, tolerant rats (FIG. 3B)) of the same molecule?
A: does not block dexmedetomidine-induced tolerance; also recorded: could not reverse tolerance

Q: What about the “effect of acute administration on dexmedetomidine-induced sleep time” value (Male Sprague-Dawley rats [1]; ketamine acute, dexmedetomidine 150 μg/kg i.p. (FIG. 3A)) of the same molecule?
A: has no effect on the sleep time

Q: What about the “effect of acute administration on dexmedetomidine-induced sleep time” value (Male Sprague-Dawley rats [1]; ketamine acute, dexmedetomidine 150 μg/kg i.p. (FIG. 3A), listed as Ketamine) of the same molecule?
A: did not affect the sleep time

Q: Which results are given for `Cc1cccc([C@H](C)c2cnc[nH]2)c1C` [dexmedetomidine]?
A: hypnotic effect of dexmedetomidine (duration of loss of righting reflex), dose response (Male Sprague-Dawley rats [1]; rats chronically treated with dexmedetomidine 5 μg/kg/h for 7 days, even when large doses were given (FIG. 1A)): almost completely absent; hypnotic effect of dexmedetomidine (duration of loss of righting reflex), dose response (Male Sprague-Dawley rats [1]; sham treated animals, challenge doses (FIG. 1A)): dose dependently increased; maximal analgesic effect of dexmedetomidine (Male Sprague-Dawley rats [2]; [5]): reduced the maximal effect; shift of the analgesic dose response curve for dexmedetomidine (Male Sprague-Dawley rats [2]; [5]): about 2 fold; dose of maximal efficacy of hypnotic action (biphasic dose response curve) (Male Sprague-Dawley rats [4]): around 300 μg/kg
